From US20220362386A1, “LIQUID COMPOSITIONS COMPRISING A LEVODOPA AMINO ACID CONJUGATE AND USES THEREOF” (NeuroDerm, Ltd., priority 2019, published 2022)
Where a name gives a salt, the structure may show the parent alone. Read-outs that look alike come from different tables or passages of the source. Non-standard residues stand in square brackets, D forms with d. Residues, ends and D or L forms follow the SMILES beside them. Dopa = N[C@@H](Cc1ccc(O)c(O)c1)C(=O)O

Experiments:
[1] = Protein binding, solid phase extraction (SPE) method; type: in vitro ADME, human; settings: human, human plasma, 1.0E−05M, SPE sample preparation
Protocol: (§1) A solid phase extraction (SPE) method was used to prepare samples for several compounds in the plasma protein binding assay. The following SPE protocols were followed:
(§2) Sorbent: Waters Oasis MCX 96—well MicroElution Plate—Cat #186001830BA Sample: 200 μL of plasma spiked at 10 μM with test compound. Sample was diluted 1:1 with 4% phosphoric acid in water and mixed for 15 minutes 1) Place Oasis plate on vacuum manifold and set vacuum to 5″ Hg; 2) Condition with 200 μL methanol; 3) Equilibrate with 200 μL water; 4) Load dilute plasma sample; 5) Wash with 200 μL 2% formic acid in water; 6) Wash with 400 μL methanol; and 7) Elute with 100 μL 5% NH4OH in methanol.
as §2, with “MAX 96-well” for “MCX 96—well”, “plate—Cat #186001829” for “Plate—Cat #186001830BA”, “5% NH4OH” for “2% formic acid”, “2% formic acid” for “5% NH4OH”

human plasma = assay: as above; type: in vitro ADME; settings: 1.0E−05M; SPE sample preparation
Protocol: as §1, §2
as §2, with “MAX 96-well” for “MCX 96—well”, “plate—Cat #186001829” for “Plate—Cat #186001830BA”, “5% NH4OH” for “2% formic acid”, “2% formic acid” for “5% NH4OH”

[2] = In-vitro metabolism of LDAA compounds using liver microsomes; type: in vitro ADME, human; settings: for half-life at 0.1 μM / microsomal CLint at 0.1 μM: both sexes, human, pooled human liver microsomes; for half-life at 0.1 μM: pH 7.4, 1.0E−07M, 0.1 mg/mL microsomal protein; for microsomal CLint at 0.1 μM: pH 7.4, calculated from the half-life; for microsomal CLint at 0.1 μM / % Compound Remaining 1st / % Compound Remaining 2nd / % Compound Remaining Mean: 1.0E−07M
Protocol: The stability of test compounds in pooled human liver microsomes was determined on 96-well plates, wherein the test compounds were quantified at five time points by HPLC-MS/MS analysis. The assay matrix included mixed gender and a pool of 50 human liver microsomes, wherein the final microsomal protein concentration was 0.1 mg/mL. The test concentration was 0.1 μM with 0.01% DMSO, 0.25% acetonitrile and 0.25% methanol.
Each test compound was pre-incubated for five minutes with pooled liver microsomes in phosphate buffer (pH 7.4) in a 37° C. shaking water-bath. The reaction was initiated by adding a nicotinamide adenine dinucleotide phosphate (NADPH)-generating system and incubating for 0, 15, 30, 45, and 60 min. The reaction was stopped by transferring the incubation mixture to acetonitrile/methanol. Samples were then mixed and centrifuged, wherein the supernatants were used for HPLC-MS/MS analysis.
In each assay the four reference compounds propranolol, imipramine, verapamil and terfenadine were tested, wherein the propranolol and the imipramine are known to be relatively stable, while the verapamil and the terfenadine are known to be readily metabolized in human liver microsomes.
All samples were analyzed by HPLC-MS/MS using selected reaction monitoring. The HPLC system consisted of a binary LC pump with autosampler, a C-18 column, and a gradient. The conditions were adjusted when necessary.
Peak areas corresponding to the test compound were recorded. The amount of each compound remaining was calculated by comparing the peak area at each time point to time zero. The half-life is calculated from the slope of the initial linear range of the logarithmic curve of compound remaining (%) vs. time, assuming first order kinetics. In addition, the intrinsic clearance (Clint) was calculated from the half-life using the following equation:
Clint(μL/min/mg protein)=0.693/(t1/2×protein concentration)
The results of the in-vitro human liver microsome metabolism tests of various LDAA compounds (10^−7M), in their TFA salt forms, are provided in FIG. 1 and in Table 17, which presents the % of the compound remaining at times 0, 15, 30, 45 and 60 minutes, two half-life measurements and the Clint, calculated as detailed above.

in vitro = settings: human
Protocol: Caco-2 cells are human intestinal epithelial cells derived from a colorectal adenocarcinoma.
The assays are performed in both the apical to basolateral (A-B) and the B-A direction. The test compound is prepared at 10 μM in HBSS-HEPES (pH 7.4) with a final DMSO concentration of 1%. The working solution is centrifuged, and the supernatant is added to the donor side. The assay plate is incubated at 37° C. with gentle shaking for 60 min or 40 min for the A-B or B-A assay, respectively. For Pgp substrate assessment, the assays are run with and without 100 μM verapamil on both the A and B sides. For BCRP substrate assessment, the assays are run with and without 10 μM Ko143 on both the A and B sides. For MRP2 substrate assessment, the assays are run with and without 100 μM MK571 on both the A and B sides. Samples are aliquoted from the donor side at time zero and the end point, and from the receiver side at the end point.
Propranolol (highly permeable), labetalol (moderately permeable), ranitidine (poorly permeable), and colchicine (P-glycoprotein substrate), estrone-3-sulfate (BCRP substrate), or CDCF (MRP2 substrate) are included in each assay.
Samples are analyzed by HPLC-MS/MS using selected reaction monitoring. The HPLC system consists of a binary LC pump with an autosampler, a C-18 column, and a gradient. Conditions may be adjusted when necessary.
Fluorescein permeability is assessed in the A-B direction at pH 7.4 on both sides after the permeability assay with the test compound. The cell monolayer with a fluorescein permeability of less than 1.5×10−6 cm/s is considered intact.
The apparent permeability coefficient (Papp) of the test compound and its recovery are calculated as follows: […]
A is the surface area of the cell monolayer (0.11 cm^2). C is concentration of the test compound, expressed as peak area. D denotes donor and R is receiver. 0, mid, and end denote time zero, mid-point, and end of the incubation. Δt is the incubation time. V is the volume of the donor or receiver.
The permeability capabilities of the several LDAA compounds, in their TFA salt form, were determined using the Caco-2 B-A method.

[3] = read-out: Half-Life (minute) 1st
[4] = read-out: Half-Life (minute) 2nd
[5] = read-out: Half-Life (minute) Mean
[6] = Caco-2, pH 7.4, Percent Recovery 1st
[7] = Caco-2, pH 7.4, Percent Recovery 2nd
[8] = Caco-2, pH 7.4, Percent Recovery Mean
[9] = Caco-2, pH 7.4, Permeability 1st
[10] = Caco-2, pH 7.4, Permeability 2nd
[11] = Caco-2, pH 7.4, Permeability Mean

Compound	recovery at 10 μM ([1]; read-out: % Recovery 1st) [%]	recovery at 10 μM ([1]; read-out: % Recovery 2nd) [%]	recovery at 10 μM ([1]; read-out: % Recovery Mean) [%]	% Protein Bound 1st (human plasma) [%]	% Protein Bound Mean (human plasma) [%]	half-life at 0.1 μM [2, 3] [min]	half-life at 0.1 μM [2, 4] [min]	half-life at 0.1 μM [2, 5] [min]	microsomal CLint at 0.1 μM [2] [µL/min/mg]	% Compound Remaining 1st ([2]; incubation time 0 minutes) [%]	% Compound Remaining 2nd ([2]; incubation time 0 minutes) [%]	% Compound Remaining Mean ([2]; incubation time 0 minutes) [%]	% Compound Remaining 1st ([2]; incubation time 15 minutes) [%]	% Compound Remaining 2nd ([2]; incubation time 15 minutes)	% Compound Remaining Mean ([2]; incubation time 15 minutes) [%]	% Compound Remaining 1st ([2]; incubation time 30 minutes) [%]	% Compound Remaining 2nd ([2]; incubation time 30 minutes) [%]	% Compound Remaining Mean ([2]; incubation time 30 minutes) [%]	% Compound Remaining 1st ([2]; incubation time 45 minutes) [%]	% Compound Remaining 2nd ([2]; incubation time 45 minutes)	other results
N[C@@H](Cc1ccc(O)c(O)c1)C(=O)N[C@@H](Cc1ccc(O)cc1)C(=O)O [LD-Tyr TFA salt, Levodopa Tyrosine TFA Salt] (H-[Dopa]-Tyr-OH)	64	72	68	11	22	112	315	> 60	< 116	100	100	100	90.7	{121.6%	91	102.5	110.1	106	71.4	104.1%	% Protein Bound 2nd (human plasma): 32.5%; % Compound Remaining Mean ([2]; incubation time 45 minutes): 88%; % Compound Remaining 1st ([2]; incubation time 60 minutes): 70.8%; % Compound Remaining 2nd ([2]; incubation time 60 minutes): 84.5%; % Compound Remaining Mean ([2]; incubation time 60 minutes): 78%; recovery at 40 min, 10 μM (in vitro; [6]): 82%; recovery at 40 min, 10 μM (in vitro; [7]): 97%; recovery at 40 min, 10 μM (in vitro; [8]): 89%; Papp B→A at 40 min, 10 μM (in vitro; [9]): 0.01 ×10⁻⁶ cm/s; Papp B→A at 40 min, 10 μM (in vitro; [10]): 0.01 ×10⁻⁶ cm/s; Papp B→A at 40 min, 10 μM (in vitro; [11]): < 0.01 ×10⁻⁶ cm/s
N=C(N)NCCC[C@H](NC(=O)[C@@H](N)Cc1ccc(O)c(O)c1)C(=O)O [LD-Arg TFA salt, Levodopa Arginine TFA Salt]	79	79	79	91.5	91	42.9	40.5	42	166	100	100	100	109.7	111.8%	111	84.2	90.9	88	70	{52.4} %	% Protein Bound 2nd (human plasma): 91.2%; % Compound Remaining Mean ([2]; incubation time 45 minutes): 70%; % Compound Remaining 1st ([2]; incubation time 60 minutes): 37.3%; % Compound Remaining 2nd ([2]; incubation time 60 minutes): 38.6%; % Compound Remaining Mean ([2]; incubation time 60 minutes): 38%; recovery at 40 min, 10 μM (in vitro; [6]): 82%; recovery at 40 min, 10 μM (in vitro; [7]): 89%; recovery at 40 min, 10 μM (in vitro; [8]): 85%; Papp B→A at 40 min, 10 μM (in vitro; [9]): 0.03 ×10⁻⁶ cm/s; Papp B→A at 40 min, 10 μM (in vitro; [10]): 0.02 ×10⁻⁶ cm/s; Papp B→A at 40 min, 10 μM (in vitro; [11]): < 0.03 ×10⁻⁶ cm/s
N[C@@H](CSC[C@H](NC(=O)[C@@H](N)Cc1ccc(O)c(O)c1)C(=O)O)C(=O)O (single isomer, unassigned; peak 2) [LD-LA2 TFA salt, Levodopa Lanthionine Peak 2 TFA Salt]	39	46	43	18.7	18.7	75.7	110	> 60	< 116	100	100	100	122.9	103.5%	113	105.6	94.5	100	97.5	102%	% Compound Remaining Mean ([2]; incubation time 45 minutes): 100%; % Compound Remaining 1st ([2]; incubation time 60 minutes): 56.5%; % Compound Remaining 2nd ([2]; incubation time 60 minutes): 62.9%; % Compound Remaining Mean ([2]; incubation time 60 minutes): 60%; recovery at 40 min, 10 μM (in vitro; [6]): 79%; recovery at 40 min, 10 μM (in vitro; [7]): 69%; recovery at 40 min, 10 μM (in vitro; [8]): 74%; Papp B→A at 40 min, 10 μM (in vitro; [9]): 13 ×10⁻⁶ cm/s; Papp B→A at 40 min, 10 μM (in vitro; [10]): 13.6 ×10⁻⁶ cm/s; Papp B→A at 40 min, 10 μM (in vitro; [11]): 13.3 ×10⁻⁶ cm/s
